Reference: PMC6199744, “Development of Chemical Proteomics for the Folateome and Analysis of the Kinetoplastid Folateome” (ACS Infectious Diseases, 2018)

Tested on: L. major lysate proteins
Experiment: Multitargeted bead mixture chemoproteomics, single concentration competition, proteome-wide
Format: binding
Settings: for fold change / fold change relative to vehicle control: vehicle control = 1; for fold change relative to vehicle control: competition with free ligand

SMILES: Nc1nc2cccc(-c3ccccc3)c2n1Cc1ccc(Cl)c(Cl)c1 [compound 3]
- fold change vs vehicle control (protein LMJF.22.0730 HY[…], CONSERVED): 1.03
- fold change (protein LMJF.22.1460 I/6 AUTOANTIGEN-LIKE PROTEIN): 1.02
- fold change vs vehicle control (protein LMJF.22.1540 ALANYL-TRNA SYNTHETASE, PUTATIVE): 0.95
- fold change vs vehicle control (protein LMJF.23.0370 […] OXIDASE SUBUNIT 10, PUTATIVE): 1.06
- fold change (protein LMJF.23.0830 NA/H ANTIPORTER-LIKE PROTEIN): 1.19
- fold change (protein LMJF.23.1020 HY[…], UNKNOWN FUNCTION): 0.96
- fold change (protein LMJF.23.1220 T-COMPLEX PROTEIN 1, GAMMA SUBUNIT, PUTATIVE): 1.01
- fold change vs vehicle control (protein LMJF.24.0140 ANKYRIN/TPR REPEAT PROTEIN): 0.99
- fold change (protein LMJF.24.0280 DYNEIN INTERMEDIATE-CHAIN-LIKE PROTEIN): 0.96
- fold change (protein LMJF.24.0770 MALIC ENZYME, PUTATIVE): 0.99
- fold change relative to vehicle control (protein LMJF.24.1510 IGE-DEPENDENT HISTAMINE-RELEASING FACTOR, PUTATIVE): 1.23
- fold change vs vehicle control (protein LMJF.24.1630, SUCCINATE DEHYDROGENASE FLAVOPROTEIN, PUTATIVE): 0.9
- fold change vs vehicle control (protein LMJF.24.1840 LYSOPHOSPHOLIPASE, PUTATIVE): 1.09
- fold change relative to vehicle control (protein LMJF.24.2060 TRANSKETOLASE): 1.1
- fold change (protein LMJF.24.2250 FATTY-ACID DESATURASE, PUTATIVE): 0.99
- fold change vs vehicle control (protein LMJF.25.0120 ELECTRON TRANSFER FLAVOPROTEIN, PUTATIVE): 0.93
- fold change vs vehicle control (protein LMJF.25.0260 DYNEIN LIGHT CHAIN 1, CYTOPLASMIC, PUTATIVE): 1.01
- fold change relative to vehicle control (protein LMJF.25.0910 C[…]): 1.18
- fold change vs vehicle control (protein LMJF.25.1180, ATPASE BETA SUBUNIT, PUTATIVE): 1.09
- fold change (protein LMJF.25.1610 HY[…], CONSERVED): 0.9
- fold change (protein LMJF.25.1620 HY[…], CONSERVED): 1.16
- fold change vs vehicle control (protein LMJF.26.1240 HEAT SHOCK PROTEIN 70-RELATED PROTEIN): 0.94
- fold change vs vehicle control (protein LMJF.26.1710 […] OXIDASE SUBUNIT V, PUTATIVE): 1.08
- fold change vs vehicle control (protein LMJF.26.1960 HY[…], CONSERVED): 0.96
- fold change vs vehicle control (protein LMJF.26.2000 HY[…], CONSERVED): 1.09
- fold change vs vehicle control (protein LMJF.27.0420 RIBOKINASE, PUTATIVE): 1.13
- fold change vs vehicle control (protein LMJF.27.1060 CYSTEINE DESULFURASE, PUTATIVE): 1.05
- fold change (protein LMJF.27.1310 ARGINYL-TRNA SYNTHETASE, PUTATIVE): 0.9
- fold change vs vehicle control (protein LMJF.27.2400 HEAT SHOCK PROTEIN DNAJ, PUTATIVE): 0.99
- fold change vs vehicle control (protein LMJF.28.0110 […] 3 SUBUNIT, PUTATIVE): 0.99
- fold change vs vehicle control (protein LMJF.28.0930 HY[…], CONSERVED): 1.07
- fold change vs vehicle control (protein LMJF.28.0950 HY[…], CONSERVED): 1.01
- fold change vs vehicle control (protein LMJF.28.0980 P27 PROTEIN, PUTATIVE): 1.09
- fold change vs vehicle control (protein LMJF.28.1950 X-PRO, DIPEPTIDYL-PEPTIDASE,SERINE PEPTIDASE, CLAN SC, FAMILY S15, PUTATIVE): 1.06
- fold change relative to vehicle control (protein LMJF.28.2770 HEAT-SHOCK PROTEIN HSP70, PUTATIVE): 0.99
- fold change (protein LMJF.29.0060 TRYPTOPHANYL-TRNA SYNTHETASE, PUTATIVE): 1.05
- fold change (protein LMJF.29.0820 CYSTEINE PEPTIDASE C (CPC)): 0.91
- fold change relative to vehicle control (protein LMJF.29.0850 HIGH MOBILITY GROUP PROTEIN HOMOLOG TDP-1, PUTATIVE): 1.27
- fold change vs vehicle control (protein LMJF.29.1160 TRYPAREDOXIN): 0.99
- fold change (protein LMJF.29.1760 PAR[…] PROTEIN 1D, PUTATIVE): 0.75
- fold change vs vehicle control (protein LMJF.29.1780 D[…] PROTEIN, PUTATIVE): 1.05
- fold change vs vehicle control (protein LMJF.29.2240 AMINOPEPTIDASE, PUTATIVE): 1.03
- fold change (protein LMJF.29.2310 ENOYL-COA HYDRATASE/ISOMERASE-LIKE PROTEIN): 0.98
- fold change (protein LMJF.29.2860 40S RIBOSOMAL PROTEIN S19-LIKE PROTEIN): 1.34
- fold change vs vehicle control (protein LMJF.30.0850 SURFACE PROTEIN AMASTIN, PUTATIVE): 1.12
- fold change (protein LMJF.30.1250 PYRIDOXAL KINASE, PUTATIVE): 0.82
- fold change (protein LMJF.30.1940 SUCCINYL-COA:3-KETOACID-COENZYME A TRANSFERASE- LIKE PROTEIN): 1.02
- fold change vs vehicle control (protein LMJF.30.3190 3-HYDROXY-3-METHYLGLUTARYL-COA REDUCTASE): 0.77
- fold change vs vehicle control (protein LMJF.30.3520 S-ADENOSYL[…]): 1.03
- fold change vs vehicle control (protein LMJF.31.0440 CYTOSKELETON-[…] CAP5 5, PUTATIVE): 0.97
- fold change (protein LMJF.31.1130 N-ACYL-L-AMINO ACID AMIDOHYDROLASE, PUTATIVE): 0.9
- fold change vs vehicle control (protein LMJF.31.1640 THIOLASE PROTEIN-LIKE PROTEIN): 1.31
- fold change (protein LMJF.31.1800 AMINO ACID PERMEASE): 0.96
- fold change (protein LMJF.31.2250 3,2-TRANS-ENOYL-COA ISOMERASE, MIT[…], PUTATIVE): 1
- fold change vs vehicle control (protein LMJF.31.2790 ADP-RI[…], PUTATIVE): 1.03
- fold change (protein LMJF.31.3130 […]-COA CARBOXYLASE BIOTINYLATED […]-LIKE PROTEIN): 0.99
- fold change (protein LMJF.32.0010 HY[…], CONSERVED): 0.78
- fold change vs vehicle control (protein LMJF.32.0400 ATP-DEPENDENT RNA HELICASE, PUTATIVE): 1.02
- fold change vs vehicle control (protein LMJF.32.0520 PROFILIN, PUTATIVE): 1.17
- fold change (protein LMJF.32.1000 […]-COMPLEX PROTEIN, PUTATIVE): 0.92
- fold change vs vehicle control (protein LMJF.32.3010 HY[…], CONSERVED,LEUCINE-RICH REPEAT PROTEIN, PUTATIVE): 1.47
- fold change vs vehicle control (protein LMJF.32.3870 MYOSIN XXI): 0.97
- fold change vs vehicle control (protein LMJF.33.0890, HY[…], CONSERVED): 1.03
- fold change vs vehicle control (protein LMJF.33.1070 HY[…], UNKNOWN FUNCTION): 1.02
- fold change (protein LMJF.33.1330 CYSTEINE CONJUGATE BETA-LYASE, AMINOTRANSFERASE- LIKE PROTEIN): 1.06
- fold change (protein LMJF.33.1610 PEPTIDASE M20/M25/M40, PUTATIVE): 0.91
- fold change relative to vehicle control (protein LMJF.33.1630 CYCLOPHILIN 4, PUTATIVE): 0.93
- fold change vs vehicle control (protein LMJF.33.2300 UDP-GLC 4'-EPIMERASE, PUTATIVE): 0.98
- fold change vs vehicle control (protein LMJF.33.2390 HEAT SHOCK PROTEIN, PUTATIVE): 0.99
- fold change (protein LMJF.33.2410 HY[…], CONSERVED): 1.06
- fold change (protein LMJF.33.3150 40S RIBOSOMAL PROTEIN S13, PUTATIVE): 1.18
- fold change (protein LMJF.34.3500 RUVB-LIKE 1 DNA HELICASE, PUTATIVE): 1.19
- fold change (protein LMJF.34.3670 VACUOLAR ATP SYNTHASE CATALYTIC SUBUNIT A, PUTATIVE): 0.9
- fold change (protein LMJF.34.3740 SERINE PALMITOYLTRANSFERASE-LIKE PROTEIN): 0.95
- fold change (protein LMJF.34.4120 HY[…], CONSERVED): 0.82
- fold change vs vehicle control (protein LMJF.34.4370 20S […] 7 SUBUNIT, (PUTATIVE)): 1.2
- fold change (protein LMJF.35.0370 ATP-DEPENDENT DEAD-BOX RNA HELICASE, PUTATIVE): 1.01
- fold change vs vehicle control (protein LMJF.35.1380, MIT[…], BETA SUBUNIT, PUTATIVE): 1.16
- fold change vs vehicle control (protein LMJF.35.1410 THREONYL-TRNA SYNTHETASE, PUTATIVE): 1.01
- fold change vs vehicle control (protein LMJF.35.1720 CYCLOPHILIN 14, PUTATIVE): 1.09
- fold change (protein LMJF.35.2500 HY[…], CONSERVED): 1.26
- fold change (protein LMJF.35.2730 ACYL-COA DEHYDROGENASE, PUTATIVE): 1.14
- fold change relative to vehicle control (protein LMJF.35.3010 […],TRYPANOTHIONE-DEPENDENT […]): 0.92
- fold change vs vehicle control (protein LMJF.35.3100 ATP-DEPENDENT RNA HELICASE, PUTATIVE): 1.01
- fold change vs vehicle control (protein LMJF.35.3340 6-phosphogluconate dehydrogenase): 1.11
- fold change (protein LMJF.35.3700 GIM5A PROTEIN, PUTATIVE,[…] PROTEIN): 0.85
- fold change vs vehicle control (protein LMJF.35.3840, […] 2 SUBUNIT, PUTATIVE): 0.92
- fold change vs vehicle control (protein LMJF.35.3860 T-COMPLEX PROTEIN 1, ETA SUBUNIT, PUTATIVE): 1
- fold change (protein LMJF.35.4550 HY[…], CONSERVED): 1.56
- fold change (protein LMJF.35.4770 CYCLOPHILIN 40): 0.89
- fold change (protein LMJF.35.4850 […] 1 SUBUNIT, PUTATIVE): 0.85
- fold change (protein LMJF.35.4860 HY[…], CONSERVED): 0.98
- fold change relative to vehicle control (protein LMJF.35.5330 ISOPENTENYL-D[…]-ISOMERASE, PUTATIVE,ISOMERASE, PUTATIVE): 1.32
- fold change vs vehicle control (protein LMJF.36.0180 […] 2): 1.05
- fold change vs vehicle control (protein LMJF.36.0620 HY[…], CONSERVED): 1.06
- fold change vs vehicle control (protein LMJF.36.0990 40S RIBOSOMAL PROTEIN S10, PUTATIVE): 1.12
- fold change vs vehicle control (protein LMJF.36.2020 CHAPERONIN HSP60, MIT[…]): 0.88
- fold change vs vehicle control (protein LMJF.36.3460 HY[…], CONSERVED): 1.04
- fold change (protein LMJF.36.3760 60S RIBOSOMAL PROTEIN L10A, PUTATIVE): 1.19
- fold change vs vehicle control (protein LMJF.36.3840 GLYCYL TRNA SYNTHETASE, PUTATIVE): 0.95
- fold change vs vehicle control (protein LMJF.36.4170 OXIDOREDUCTASE, PUTATIVE): 0.93
- fold change vs vehicle control (protein LMJF.36.5010 40S RIBOSOMAL PROTEIN SA, PUTATIVE): 1.04
- fold change vs vehicle control (protein LMJF.36.5620 ISOLEUCYL-TRNA SYNTHETASE, PUTATIVE): 0.99
- fold change vs vehicle control (protein LMJF.36.6430 PROTEIN TRANSPORT PROTEIN SEC23-LIKE PROTEIN): 1.04
- fold change (protein LMJF.36.6760 HY[…], CONSERVED): 0.97
- fold change vs vehicle control (protein LMJF.36.6910 T-COMPLEX PROTEIN 1, THETA SUBUNIT, PUTATIVE): 1
- fold change vs vehicle control (protein LMJF.36.6940 disulfide isomerase PDI): 1.23
- fold change vs vehicle control (protein LMJF.[…] […] EXOPOLYPHOSPHATASE, PUTATIVE): 0.81
